Experimental data taken from US20200060276A1, “THIAZOLE COMPOUND AND HERBICIDE” (OAT Agrio Co., Ltd., priority 2017, published 2020).

Legend:
Type in all cases: in vivo
[1] = tested on: Echinochloa crus-galli (L.) P. Beauv. var. formosensis Ohwi; assay: Test for Herbicidal Effect in Flooding Treatment (#1), ECHDG; conditions: flooding treatment at seeding, dose 2 kg/ha, visual observation on day 21
In short: (§1)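 Visual scores from 0 (<10% inhibition) to 5 (≥90% or complete withering) were taken 21 days after treatment of glasshouse-grown plants. Seeds were sown in soil flooded for 24 h beforehand, and compound was applied dropwise onto the surface at 2 kg/ha as an acetone solution diluted in water with Tween 80.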

Monochoria vaginalis = assay: Test for Herbicidal Effect in Flooding Treatment (#1), MONVA; conditions: flooding treatment at seeding, dose 2 kg/ha, visual observation on day 21
In short: as §1

Scirpus juncoides = assay: Test for Herbicidal Effect in Flooding Treatment (#1), SCIJU; conditions: flooding treatment at seeding, dose 2 kg/ha, visual observation on day 21
In short: as §1

Cyperus microiria = assay: Test for Herbicidal Effect in Flooding Treatment (#1), CYMIC; conditions: flooding treatment at seeding, dose 2 kg/ha, visual observation on day 21
In short: as §1

[2] = tested on: Echinochloa crus-galli (L.) P. Beauv. var. formosensis Ohwi; assay: Test for Herbicidal Effect in Flooding Treatment (#2), ECHDG at 2-2.5 leaf stage; conditions: flooding treatment at 2-2.5 leaf stage, dose 0.2 kg/ha, visual observation on day 21
In short: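 Scoring is a visual 0–5 scale of growth inhibition (0 below 10%, 5 at 90% or more or full withering), taken 21 days after treatment in a glasshouse. Dose was 0.2 kg/ha, applied as acetone/Tween 80 aqueous solution onto flooded soil once seedlings reached the 2–2.5 leaf stage.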

For `CCOc1c(F)ccc(F)c1CS(=O)(=O)c1ncc(Cl)s1` [Compound 1C-27], the “ECHDG #1 herbicidal effect (growth inhibition grade)” value [1] was 5 (Growth inhibition effect is equal to or greater than 90%, or complete withering is achieved), the “MONVA #1 herbicidal effect (growth inhibition grade)” value (Monochoria vaginalis) was 5 (Growth inhibition effect is equal to or greater than 90%, or complete withering is achieved) and the “SCIJU #1 herbicidal effect (growth inhibition grade)” value (Scirpus juncoides) was 5 (Growth inhibition effect is equal to or greater than 90%, or complete withering is achieved). For the same compound, the “CYMIC #1 herbicidal effect (growth inhibition grade)” value (Cyperus microiria) was 5 (Growth inhibition effect is equal to or greater than 90%, or complete withering is achieved) and the “ECHDG (2-2.5L) #2 herbicidal effect (growth inhibition grade)” value [2] was 5 (Growth inhibition effect is equal to or greater than 90%, or complete withering is achieved).

For `CCOc1c(F)cc(CS(=O)(=O)c2ncc(Cl)s2)cc1Cl` [Compound 1C-105], the “ECHDG #1 herbicidal effect (growth inhibition grade)” value [1] was 5 (Growth inhibition effect is equal to or greater than 90%, or complete withering is achieved), the “MONVA #1 herbicidal effect (growth inhibition grade)” value (Monochoria vaginalis) was 5 (Growth inhibition effect is equal to or greater than 90%, or complete withering is achieved) and the “SCIJU #1 herbicidal effect (growth inhibition grade)” value (Scirpus juncoides) was 5 (Growth inhibition effect is equal to or greater than 90%, or complete withering is achieved). The “CYMIC #1 herbicidal effect (growth inhibition grade)” value (Cyperus microiria) was 5 (Growth inhibition effect is equal to or greater than 90%, or complete withering is achieved) and the “ECHDG (2-2.5L) #2 herbicidal effect (growth inhibition grade)” value [2] was 2 (Growth inhibition effect is equal to or greater than 30%, and less than 50%).

`COCOc1cc(F)c(CS(=O)(=O)c2ncc(Cl)s2)c(F)c1` [Compound 1C-118] was tested, and the “ECHDG #1 herbicidal effect (growth inhibition grade)” value [1] was 5 (Growth inhibition effect is equal to or greater than 90%, or complete withering is achieved), the “SCIJU #1 herbicidal effect (growth inhibition grade)” value (Scirpus juncoides) was 5 (Growth inhibition effect is equal to or greater than 90%, or complete withering is achieved) and the “CYMIC #1 herbicidal effect (growth inhibition grade)” value (Cyperus microiria) was 5 (Growth inhibition effect is equal to or greater than 90%, or complete withering is achieved). For the same compound, the “ECHDG (2-2.5L) #2 herbicidal effect (growth inhibition grade)” value [2] was 4 (Growth inhibition effect is equal to or greater than 70%, and less than 90%).

In the case of `CCCCOc1cc(F)c(CS(=O)(=O)c2ncc(Cl)s2)c(F)c1` [Compound 1C-112], the “ECHDG #1 herbicidal effect (growth inhibition grade)” value [1] was 5 (Growth inhibition effect is equal to or greater than 90%, or complete withering is achieved), the “SCIJU #1 herbicidal effect (growth inhibition grade)” value (Scirpus juncoides) was 5 (Growth inhibition effect is equal to or greater than 90%, or complete withering is achieved) and the “CYMIC #1 herbicidal effect (growth inhibition grade)” value (Cyperus microiria) was 5 (Growth inhibition effect is equal to or greater than 90%, or complete withering is achieved). The “ECHDG (2-2.5L) #2 herbicidal effect (growth inhibition grade)” value [2] was 3 (Growth inhibition effect equal to or greater than 50%, and less than 70%).

`COc1cc(CS(=O)(=O)c2ncc(Cl)s2)ccc1C` [Compound 1C-68] was tested, and the “ECHDG #1 herbicidal effect (growth inhibition grade)” value [1] was 5 (Growth inhibition effect is equal to or greater than 90%, or complete withering is achieved), the “SCIJU #1 herbicidal effect (growth inhibition grade)” value (Scirpus juncoides) was 5 (Growth inhibition effect is equal to or greater than 90%, or complete withering is achieved) and the “CYMIC #1 herbicidal effect (growth inhibition grade)” value (Cyperus microiria) was 5 (Growth inhibition effect is equal to or greater than 90%, or complete withering is achieved). For the same compound, the “ECHDG (2-2.5L) #2 herbicidal effect (growth inhibition grade)” value [2] was 4 (Growth inhibition effect is equal to or greater than 70%, and less than 90%).

`CCOc1ccc(CS(=O)(=O)c2ncc(Cl)s2)cc1C` [Compound 1C-97] was tested, and the “ECHDG #1 herbicidal effect (growth inhibition grade)” value [1] was 5 (Growth inhibition effect is equal to or greater than 90%, or complete withering is achieved), the “SCIJU #1 herbicidal effect (growth inhibition grade)” value (Scirpus juncoides) was 5 (Growth inhibition effect is equal to or greater than 90%, or complete withering is achieved) and the “CYMIC #1 herbicidal effect (growth inhibition grade)” value (Cyperus microiria) was 5 (Growth inhibition effect is equal to or greater than 90%, or complete withering is achieved). For the same compound, the “ECHDG (2-2.5L) #2 herbicidal effect (growth inhibition grade)” value [2] was 3 (Growth inhibition effect equal to or greater than 50%, and less than 70%).

With `CCOc1c(C)cc(CS(=O)(=O)c2ncc(Cl)s2)cc1C` [Compound 1C-107] the “ECHDG #1 herbicidal effect (growth inhibition grade)” value [1] was 5 (Growth inhibition effect is equal to or greater than 90%, or complete withering is achieved), the “SCIJU #1 herbicidal effect (growth inhibition grade)” value (Scirpus juncoides) was 5 (Growth inhibition effect is equal to or greater than 90%, or complete withering is achieved) and the “CYMIC #1 herbicidal effect (growth inhibition grade)” value (Cyperus microiria) was 5 (Growth inhibition effect is equal to or greater than 90%, or complete withering is achieved). The “ECHDG (2-2.5L) #2 herbicidal effect (growth inhibition grade)” value [2] was 4 (Growth inhibition effect is equal to or greater than 70%, and less than 90%).

With `CCCOc1cc(F)c(CS(=O)(=O)c2ncc(Cl)s2)c(F)c1` [Compound 1C-109] the “ECHDG #1 herbicidal effect (growth inhibition grade)” value [1] was 5 (Growth inhibition effect is equal to or greater than 90%, or complete withering is achieved), the “SCIJU #1 herbicidal effect (growth inhibition grade)” value (Scirpus juncoides) was 5 (Growth inhibition effect is equal to or greater than 90%, or complete withering is achieved) and the “CYMIC #1 herbicidal effect (growth inhibition grade)” value (Cyperus microiria) was 5 (Growth inhibition effect is equal to or greater than 90%, or complete withering is achieved). The “ECHDG (2-2.5L) #2 herbicidal effect (growth inhibition grade)” value [2] was 4 (Growth inhibition effect is equal to or greater than 70%, and less than 90%).

For `CCCCOc1cc(Cl)c(CS(=O)(=O)c2ncc(Cl)s2)c(Cl)c1` [Compound 1C-113], the “ECHDG #1 herbicidal effect (growth inhibition grade)” value [1] was 5 (Growth inhibition effect is equal to or greater than 90%, or complete withering is achieved), the “SCIJU #1 herbicidal effect (growth inhibition grade)” value (Scirpus juncoides) was 5 (Growth inhibition effect is equal to or greater than 90%, or complete withering is achieved) and the “CYMIC #1 herbicidal effect (growth inhibition grade)” value (Cyperus microiria) was 5 (Growth inhibition effect is equal to or greater than 90%, or complete withering is achieved). For the same compound, the “ECHDG (2-2.5L) #2 herbicidal effect (growth inhibition grade)” value [2] was 5 (Growth inhibition effect is equal to or greater than 90%, or complete withering is achieved).

In the case of `COc1ccc(CS(=O)(=O)c2ncc(Cl)s2)c(OC)c1` [Compound 1C-125], the “ECHDG #1 herbicidal effect (growth inhibition grade)” value [1] was 5 (Growth inhibition effect is equal to or greater than 90%, or complete withering is achieved), the “SCIJU #1 herbicidal effect (growth inhibition grade)” value (Scirpus juncoides) was 5 (Growth inhibition effect is equal to or greater than 90%, or complete withering is achieved) and the “CYMIC #1 herbicidal effect (growth inhibition grade)” value (Cyperus microiria) was 5 (Growth inhibition effect is equal to or greater than 90%, or complete withering is achieved). The “ECHDG (2-2.5L) #2 herbicidal effect (growth inhibition grade)” value [2] was 5 (Growth inhibition effect is equal to or greater than 90%, or complete withering is achieved).

For `CCOc1c(F)c(F)c(CS(=O)(=O)c2ncc(Cl)s2)c(F)c1F` [Compound 1C-108], the “ECHDG #1 herbicidal effect (growth inhibition grade)” value [1] was 5 (Growth inhibition effect is equal to or greater than 90%, or complete withering is achieved), the “SCIJU #1 herbicidal effect (growth inhibition grade)” value (Scirpus juncoides) was 5 (Growth inhibition effect is equal to or greater than 90%, or complete withering is achieved) and the “CYMIC #1 herbicidal effect (growth inhibition grade)” value (Cyperus microiria) was 5 (Growth inhibition effect is equal to or greater than 90%, or complete withering is achieved). For the same compound, the “ECHDG (2-2.5L) #2 herbicidal effect (growth inhibition grade)” value [2] was 5 (Growth inhibition effect is equal to or greater than 90%, or complete withering is achieved).

For `COc1cccc(CS(=O)(=O)c2ncc(Cl)s2)c1OC` [Compound 1C-124], the “ECHDG #1 herbicidal effect (growth inhibition grade)” value [1] was 5 (Growth inhibition effect is equal to or greater than 90%, or complete withering is achieved), the “SCIJU #1 herbicidal effect (growth inhibition grade)” value (Scirpus juncoides) was 5 (Growth inhibition effect is equal to or greater than 90%, or complete withering is achieved) and the “CYMIC #1 herbicidal effect (growth inhibition grade)” value (Cyperus microiria) was 5 (Growth inhibition effect is equal to or greater than 90%, or complete withering is achieved). For the same compound, the “ECHDG (2-2.5L) #2 herbicidal effect (growth inhibition grade)” value [2] was 4 (Growth inhibition effect is equal to or greater than 70%, and less than 90%).

With `CCOc1cc(F)ccc1CS(=O)(=O)c1ncc(Cl)s1` [Compound 1C-12] the “ECHDG #1 herbicidal effect (growth inhibition grade)” value [1] was 5 (Growth inhibition effect is equal to or greater than 90%, or complete withering is achieved), the “SCIJU #1 herbicidal effect (growth inhibition grade)” value (Scirpus juncoides) was 5 (Growth inhibition effect is equal to or greater than 90%, or complete withering is achieved) and the “CYMIC #1 herbicidal effect (growth inhibition grade)” value (Cyperus microiria) was 5 (Growth inhibition effect is equal to or greater than 90%, or complete withering is achieved). The “ECHDG (2-2.5L) #2 herbicidal effect (growth inhibition grade)” value [2] was 4 (Growth inhibition effect is equal to or greater than 70%, and less than 90%).

In the case of `COc1cc(Cl)ccc1CS(=O)(=O)c1ncc(Cl)s1` [Compound 1C-4], the “ECHDG #1 herbicidal effect (growth inhibition grade)” value [1] was 5 (Growth inhibition effect is equal to or greater than 90%, or complete withering is achieved), the “SCIJU #1 herbicidal effect (growth inhibition grade)” value (Scirpus juncoides) was 5 (Growth inhibition effect is equal to or greater than 90%, or complete withering is achieved) and the “CYMIC #1 herbicidal effect (growth inhibition grade)” value (Cyperus microiria) was 5 (Growth inhibition effect is equal to or greater than 90%, or complete withering is achieved). For the same compound, the “ECHDG (2-2.5L) #2 herbicidal effect (growth inhibition grade)” value [2] was 5 (Growth inhibition effect is equal to or greater than 90%, or complete withering is achieved).

`O=S(=O)(Cc1ccccc1OC(F)(F)F)c1ncc(Cl)s1` [Compound 1C-46] was tested, and the “ECHDG #1 herbicidal effect (growth inhibition grade)” value [1] was 5 (Growth inhibition effect is equal to or greater than 90%, or complete withering is achieved), the “SCIJU #1 herbicidal effect (growth inhibition grade)” value (Scirpus juncoides) was 5 (Growth inhibition effect is equal to or greater than 90%, or complete withering is achieved) and the “CYMIC #1 herbicidal effect (growth inhibition grade)” value (Cyperus microiria) was 5 (Growth inhibition effect is equal to or greater than 90%, or complete withering is achieved). For the same compound, the “ECHDG (2-2.5L) #2 herbicidal effect (growth inhibition grade)” value [2] was 5 (Growth inhibition effect is equal to or greater than 90%, or complete withering is achieved).
